Data set [1] can be described thus: Heat stability of Melatonin adsorbed or linked to a substrate. It is filed as physicochemical. From the text:
In the practice of the invention, the coadministration, adsorption or linking of Melatonin to the bone graft substrate preferably involves Melatonin per se, although the use of the precursors or metabolites of Melatonin (including but not limited to 5-hydroxytryptophan (5OHTrp), 5-hydroxytryptamine (5HT), N-acetyl-5-hydroxytryptamine (NA5OHT) or 6-hydroxymelatonin (6OHMEL)) still falls within the scope of this invention albeit in a less preferred way.

Data set [2] deals with mesenchymal stem cells. The note with it: cited from earlier work.

Turning to `COc1ccc2[nH]cc(CCNC(C)=O)c2c1` [Melatonin, N-acetyl-5-methoxytryptamine], the stability to autoclaving entry in data set [1] (adsorbed or linked to substrate, autoclaved such as at 180° C.) is “surviving the autoclaving process intact”. For the same compound, the stability to sintering entry in data set [1] (sintering temperatures used to make bone grafts and implants) is listed as “cannot survive”.

Take arg-gly-asp [RDG peptide]: the “spreading of the cells” value in data set [2] (mesenchymal stem cells) was “does not enhance the spreading”. For the same compound, in data set [2] (substrates: hydroxyapatite, titanium, polymer scaffolds), the “attachment of mesenchymal stem cells” value is “can increase the attachment”.

Values taken from patent US8535706B2, “Bone implant” (Duquesne University of the Holy Spirit, priority 2010, dated 2013).
